Data: patent US6127392A, “Anthranilic acid analogs” (American Home Products Corporation, priority 1998, dated 2000)

Assays:
[1] = target: T1, calcium-dependent large conductance potassium channels (maxi K^+) (Rattus norvegicus, UniProt Q62976); experiment: Potassium channel activation, whole cell patch clamp in isolated rat detrusor cells; assay type: cell-based
T1 construct: Rat detrusor cells were isolated in a manner previously described for guinea-pig detrusor; from tissue; host or cells: freshly isolated detrusor smooth muscle cells from urinary bladder dome of male Sprague-Dawley rats (endogenous channel)
T1 sequence (Q62976 whole entry): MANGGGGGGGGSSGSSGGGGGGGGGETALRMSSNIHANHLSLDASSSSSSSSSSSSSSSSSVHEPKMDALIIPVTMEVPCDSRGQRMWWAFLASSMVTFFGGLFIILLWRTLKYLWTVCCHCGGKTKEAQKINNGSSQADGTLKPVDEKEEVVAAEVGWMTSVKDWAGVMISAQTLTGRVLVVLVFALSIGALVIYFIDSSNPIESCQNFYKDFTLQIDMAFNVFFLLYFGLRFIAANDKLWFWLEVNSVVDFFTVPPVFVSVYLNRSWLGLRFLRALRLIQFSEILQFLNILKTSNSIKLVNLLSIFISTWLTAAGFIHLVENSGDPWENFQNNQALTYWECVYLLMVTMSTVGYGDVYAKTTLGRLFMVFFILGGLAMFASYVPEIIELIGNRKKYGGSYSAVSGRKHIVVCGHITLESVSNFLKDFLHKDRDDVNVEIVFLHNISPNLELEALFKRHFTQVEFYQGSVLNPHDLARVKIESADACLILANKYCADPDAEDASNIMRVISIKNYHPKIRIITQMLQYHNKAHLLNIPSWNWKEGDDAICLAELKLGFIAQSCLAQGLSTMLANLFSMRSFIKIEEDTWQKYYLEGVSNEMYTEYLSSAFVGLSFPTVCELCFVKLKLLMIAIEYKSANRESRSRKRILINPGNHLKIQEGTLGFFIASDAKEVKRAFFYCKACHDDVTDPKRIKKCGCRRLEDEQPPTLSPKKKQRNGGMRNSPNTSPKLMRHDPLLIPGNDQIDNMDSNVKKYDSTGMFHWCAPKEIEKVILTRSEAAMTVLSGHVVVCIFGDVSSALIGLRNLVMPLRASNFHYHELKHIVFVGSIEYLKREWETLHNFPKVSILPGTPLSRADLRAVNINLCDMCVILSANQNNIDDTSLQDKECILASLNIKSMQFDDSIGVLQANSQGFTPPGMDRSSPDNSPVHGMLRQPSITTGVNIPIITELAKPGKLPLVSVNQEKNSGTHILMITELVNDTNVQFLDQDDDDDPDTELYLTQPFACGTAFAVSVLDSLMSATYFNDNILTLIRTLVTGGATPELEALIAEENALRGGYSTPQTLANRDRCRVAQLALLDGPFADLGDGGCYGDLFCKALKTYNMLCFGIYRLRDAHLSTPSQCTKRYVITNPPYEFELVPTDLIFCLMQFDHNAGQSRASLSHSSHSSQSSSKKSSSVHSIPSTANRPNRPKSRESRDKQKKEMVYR
Protocol: Potassium channel activation by compounds of the present invention was established by examining the effect of the compound of Example 1 on calcium-dependent large conductance potassium channels (maxi K^+) as follows:
Rat detrusor cells were isolated in a manner previously described for guinea-pig detrusor (Sheldon and Argentieri, 1995). Male Sprage-Dawley rats (200-400 grams) were euthanized by CO2 inhalation and exsanguination. Their urinary bladders were rapidly removed and placed in 37° C. physiological solution with the following composition (mM): Na glutamate (80.0), NaCl (54.7), KCl (5.0), NaHCO3 (25.0), MgCl2.2H2 O (2.5), D-glucose (11.8) and CaCl2 (0.2) gassed with […], 95%/5% for a final pH of 7.4. The dome of the bladder was isolated from the trigon region and the mucosa was removed. This tissue was then cut into 2-3 mm wide strips and placed in fresh buffer for 1 hour. Tissues were then transferred into 10.0 ml of an isolation buffer containing the above composition plus collagenase type VIII (1.0 mg/ml) and pronase (0.25 mg/ml). After 10 minutes the isolation buffer was replaced with fresh isolation buffer for an additional 10 min. […]
Whole cell recordings were made using broken patch assess. […] After stability was achieved control currents were recorded. […] Currents were recorded for 5 to 10 minutes or until compound effects reached steady state. […]

[2] = test system: swelling induced chloride channel current; experiment: Chloride channel blockade, swelling induced chloride current in bladder cells; assay type: cell-based, guinea pig
Text: Normal human bronchial epithelial cells (NHBE) were commercially available from Clonetics Corporation (San Diego, Calif.) and bladder cells were isolated from rat bladder.
The normal external solution contained (in mM): N-methyl d-Glucamine chloride (NMDGCl). 140, MgCl2 2, CaCl2 2 and 4-(2-hydroxyethyl)-1-piperazine ethanesulfonic acid (HEPES) 10. The normal pipette solution contained (in mM): NMDGCI. 125, HEPES 10, MgCl2 2, ethylenebis(oxonitrilo)tetraacetate (EGTA) 2, and ATPMg 5, the pH adjusted to 7.3 with TRIS. To identify the leak conductance from depolarization, internal Cl ion concentration was reduced to 40 mM using glutamic acid (ECl approximately -31 mV according Nernst equation). The osmolarity for standard external solution was about 280 mOsm. […]
The whole cell voltage clamp recording techniques were utilized to record membrane ionic currents. […] Membrane currents were recorded using an Axopatch 200A Patch Clamp Amplifier (Axon Instruments, Inc., Foster City, Calif.). […]
A: current traces from -100 to 60 mV were recorded in the isotonic, low osmolarity (210 mOsm) and after application of 20 μM Example 1 in same cell. […] Panel B is four superimposed ramp test traces recorded in the presence of control, hypotonic, Example 1 and washout solutions. The C panel depicts the time course of the effect of Example 1 on ICl,swelling at 60 mV monitored from the same cell.

[3] = test system: Isolated Rat Bladder Strips; experiment: Inhibition of contractions in isolated rat bladder strips; assay type: cell-based
Protocol: Sprague-Dawley rats (150-200 g) are rendered unconscious by CO2 asphyxiation and then euthanized by cervical dislocation. […] The bladder is opened and then cut into strips 1-2 mm in width and 7-10 mm in length. The strips are subsequently suspended in a 10 mL tissue bath under an initial resting tension of 1.5 g. The strips are held in place by two surgical clips one of which is attached to a fixed hook while the other is attached to an isometric force transducer. […] The carbachol is then washed out and the tissue allowed to relax to its resting level of activity. Following a further 30 min period of recovery an additional 15 mM KCl are introduced into the tissue bath. […] Following stabilization of this enhanced level of contractile activity, incremental increases in the concentration of test compound or vehicle are introduced into the tissue bath. Contractile activity is measured for each compound or vehicle concentration during the last minute of a 30 minute challenge.

C/C(=C\c1ccc(C(F)(F)F)cc1)C(=O)Nc1ccccc1C(=O)[O-].[Li+] [Example 1, Step 4, (E)-2-[2-Methyl-3-(4-trifluoromethyl-phenyl)-acryloylamino]-benzoic acid lithium salt]
effect on outward current (maxi K^+ current) ([1]; 10 μM in superfusate, isolated rat bladder cells): increase in outward current that was reversible upon washout
effect on swelling induced chloride current ([2]; 20 μM, guinea pig bladder cell, low osmolarity 210 mOsm): significantly reduced swelling induced chloride current
inhibition at 20 µM ([2]; Cavia porcellus, Bladder, Swelling ICl, 60 mV, 210 mOsm): 67%

COc1ccc(Cl)cc1C(=O)NCCc1ccc(S(=O)(=O)NC(=O)NC2CCCCC2)cc1 [glyburide, reference compound]
effect of glyburide on outward current ([1]; glyburide 5 μM added to the superfusate): no effect

COc1ccc(/C=C/C(=O)Nc2ccccc2C(=O)O)cc1OC [Tranilast, reference compound]
smooth muscle relaxant potency and bladder selectivity ([3]; bladder/aorta IC50 ratios, Table 1): not to be a potent or bladder selective smooth muscle relaxant

C/C(=C\c1ccc(C(F)(F)F)cc1)C(=O)Nc1ccccc1C(=O)O [1, Step 4]
IC50 (A)/IC50 (B) ([3]; aorta/bladder IC50 ratio, selectivity): 39.6
